Data as given in PubChem BioAssay (NCI).
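A five-concentration, 48-hour dose response in 96-well plates underlies each endpoint, interpolated linearly between surrounding concentrations. TGI: concentration producing complete growth inhibition.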

Experiments:
Test in all cases: NCI-60 cell line screen, 48 h
[1] = system: SK-MEL-2 melanoma
[2] = system: NCI-H23 lung
[3] = system: KM12 colon
[4] = system: SF-268 CNS
[5] = system: LOX IMVI melanoma
[6] = system: LXFL 529 NSCLC
[7] = system: HOP-92 NSCLC
[8] = system: ACHN renal
[9] = system: HOP-62 NSCLC
[10] = system: UACC-257 melanoma
[11] = system: 786-0 renal
[12] = system: SW-620 colon
[13] = system: HCT-116 colon
[14] = system: HCT-15 colon
[15] = system: NCI-H522 lung
[16] = system: M14 melanoma
[17] = system: SK-MEL-28 melanoma
[18] = system: OVCAR-3 ovarian
[19] = system: SF-539 CNS
[20] = system: DLD-1 colon
[21] = system: IGROV1 ovarian
[22] = system: HT29 colon
[23] = system: UACC-62 melanoma
[24] = system: U251 CNS
[25] = system: M19-MEL melanoma
[26] = system: SN12C renal
[27] = system: OVCAR-8 ovarian
[28] = system: HCC-2998 colon
[29] = system: UO-31 renal
[30] = system: SK-MEL-5 melanoma
[31] = system: CAKI-1 renal
[32] = system: SF-295 CNS
[33] = system: DMS 273 small cell lung
[34] = system: EKVX NSCLC
[35] = system: OVCAR-4 ovarian
[36] = system: A549 NSCLC
[37] = system: SNB-19 CNS
[38] = system: NCI-H460 lung
[39] = system: TK-10 renal
[40] = system: KM20L2 colon
[41] = system: DMS 114 small cell lung
[42] = system: MALME-3M melanoma
[43] = system: SNB-78 CNS
[44] = system: RPMI-8226 leukemia
[45] = system: SNB-75 CNS
[46] = system: COLO 205 colon
[47] = system: SK-OV-3 ovarian
[48] = system: MOLT-4 leukemia
[49] = system: SR leukemia
[50] = system: HL-60(TB) leukemia
[51] = system: OVCAR-5 ovarian
[52] = system: CCRF-CEM leukemia
[53] = system: NCI-H226 lung
[54] = system: A498 renal

Measured: TGI

CCN(CC)C(=O)c1ccc(C)c(N=NN(C)C)c1
> 100 µM: [1] | [2] | [3] | [4] | [5] | [6] | [7] | [8] | [9] | [10] | [11] | [12] | [13] | [14] | [15] | [16] | [17] | [18] | [19] | [20] | [21] | [22] | [23] | [24] | [25] | [26] | [27] | [28] | [29] | [30] | [31] | [32] | [33] | [34] | [35] | [36] | [37] | [38] | [39]

O=C(O)CSc1nnc(COc2ccccc2)n1-c1ccccc1
> 100 µM: [40] | [41] | [1] | [2] | [3] | [4] | [5] | [6] | [7] | [8] | [42] | [9] | [43] | [10] | [11] | [44] | [45] | [13] | [46] | [47] | [14] | [15] | [48] | [16] | [17] | [18] | [19] | [20] | [49] | [21] | [22] | [24] | [25] | [26] | [50] | [27] | [51] | [28] | [29] | [52] | [30] | [32] | [33] | [53] | [54] | [35] | [36] | [38] | [39]
